Source: patent US20260159525A1, “TRICYCLIC HETEROCYCLES” (Merck Patent GmbH, priority 2021, published 2026)

Test system: YAP-TEAD interaction
Test: SK-HEP-1 reporter assay (8x TEAD responsive elements driving NanoLuc luciferase)
Format: cell-based
Settings: Homo sapiens, SK-HEP1, SK-HEP-1 cells, 24 hour incubation, group symbols
Protocol: To identify inhibitors of YAP-TEAD interaction, 8× TEAD responsive elements driving the NanoLuc® luciferase gene were stably integrated into SK-HEP-1 cells (ECACC #: 91091816).
For the assay, cells were treated in duplicates with the test compounds in a 10-point dose, with the top concentration starting at 30 μM (final concentration in assay). After a 24 hour incubation at 37° C., 95% rH, and 5% CO2, a luciferase substrate/lysis reagent mix (NanoGlo™, Promega) was added to the cells, allowing the quantification of cellular luciferase activity.
Cell Media: The cells were cultured in the following media: MEM, +10% FBS, +1× GlutaMAX, +1 mM Sodium-Pyruvate, +100 μM Non-essential amino acids, +0.1 mg/ml Hygromycin. The media used for the assay was: MEM (w/o Phenol Red), +10% FBS, +1× GlutaMAX, +1 mM Sodium-Pyruvate, +100 μM Non-essential amino acids, +0.5% Pen/Strep
Reagents: The reagents used are listed below:
Cell culture: The cells were examined using an inverted microscope to check for health and cell density. To dissociate adherent cells, the monolayer of cells was washed once with pre-warmed PBS. After removing the PBS, 3 ml pre-warmed Accutase® was added to a F75 flask, dispersed evenly and the flask was allowed to sit in incubator for ˜4-5 minutes.
When a single cell suspension was obtained, 7 ml of prewarmed growth media was added and resuspended with the cells. The cell suspension was transferred to a sterile 15 ml conical centrifuge tube, and spun for 5 min at 300×g, RT. The supernatant was discarded and the pellet was resuspended in 10 ml of pre-warmed growth media.
The total cell count was determined, and 20 μl of the desired cell number was added to each well of a 384 well plate using a Multidrop Combi. The plates were then incubated for 24 hours at 37° C., 95% rH, and 5% CO2.
Compound treatment: 24 hours after seeding, the cells were treated with compounds.
A 1:333 dilution of compounds, diluted in DMSO, was made to get a final concentration of 0.3% DMSO per well. To transfer the compounds to the assay plate, 120 nl was shot from Labcyte low dead volume plates to the cell plates containing 20 μl media/well with the ECHO 555 liquid handling system. After treatment, the cells were fed with 20 μl fresh pre-warmed assay media using a Multidrop combi.
The assay plates were then incubated for another 24 h at 37° C., 95% rH, and 5% CO2.
Luciferase readout: 24 h after treatment, the plates were taken out of the incubator and were allowed to equilibrate to RT. 30 μl of NanoGlo® reagent was added to the plates in the dark. Plates were shaken for 20 min on a Teleshake (˜1500 rpm) in the dark. The luminescence was then measured using an EnVision microplate reader. The IC50 values were generated using Genedata Screener®.

Row | Compound | IC50
1 | CC[C@@H](O)CNC(=O)c1cc2c3cn(C)nc3n(-c3ccc(C(F)(F)F)cc3)c2s1 [Compound 82, N-[(2R)-2-hydroxybutyl]-4-methyl-7-[4-(trifluoromethyl)phenyl]-9-thia-4,5,7-triazatricyclo[6.3.0.0^2,6]undeca-1(8),2,5,10-tetraene-10-carboxamide] | 0.1 to 10 µM
2 | CC[C@H](O)CNC(=O)c1cc2c3cn(C)nc3n(-c3ccc(C(F)(F)F)cc3)c2s1 [Compound 83, N-[(2S)-2-hydroxybutyl]-4-methyl-7-[4-(trifluoromethyl)phenyl]-9-thia-4,5,7-triazatricyclo[6.3.0.0^2,6]undeca-1(8),2,5,10-tetraene-10-carboxamide] | 0.1 to 10 µM
3 | C[C@H](CO)NC(=O)c1cc2c3cn(C)nc3n(-c3ccc(SC(F)(F)F)cc3)c2s1 [Compound 84, N-[(2R)-1-hydroxypropan-2-yl]-4-methyl-7-{4-[(trifluoromethyl)sulfanyl]phenyl}-9-thia-4,5,7-triazatricyclo[6.3.0.0^2,6]undeca-1(8),2,5,10-tetraene-10-carboxamide] | 0.01 to 0.1 µM
4 | CNC(=O)c1cc2c3cn(C)nc3n(-c3ccc(SC(F)(F)F)cc3)c2s1 [Compound 85, N,4-dimethyl-7-{4-[(trifluoromethyl)sulfanyl]phenyl}-9-thia-4,5,7-triazatricyclo[6.3.0.0^2,6]undeca-1(8),2,5,10-tetraene-10-carboxamide] | 0.01 to 0.1 µM
5 | Cn1cc2c3cc(C#N)sc3n(-c3ccc(C(F)(F)F)cc3)c2n1 [Compound 94, 4-methyl-7-[4-(trifluoromethyl)phenyl]-9-thia-4,5,7-triazatricyclo[6.3.0.0^2,6]undeca-1(8),2,5,10-tetraene-10-carbonitrile] | 0.1 to 10 µM
6 | Cn1cc2c3cc(C(=O)O)sc3n(-c3ccc(S(F)(F)(F)(F)F)cc3)c2n1 [Compound 98, 4-methyl-7-[4-(pentafluoro-lambda6-sulfanyl)phenyl]-9-thia-4,5,7-triazatricyclo[6.3.0.0^2,6]undeca-1(8),2,5,10-tetraene-10-carboxylic acid] | 0.1 to 10 µM
7 | Cn1cc2c3cc(C(=O)N[C@@H](CO)c4ccccn4)sc3n(-c3ccc(C(F)F)cc3)c2n1 [Compound 101, 7-[4-(difluoromethyl)phenyl]-N-[(1R)-2-hydroxy-1-(pyridin-2-yl)ethyl]-4-methyl-9-thia-4,5,7-triazatricyclo[6.3.0.0^2,6]undeca-1(8),2,5,10-tetraene-10-carboxamide] | 0.1 to 10 µM
8 | Cn1nc2c3cc(C(=O)N4CC[C@H](O)C4)sc3n(-c3ccc(C(F)(F)F)cc3)c2n1 [Compound 103, (3S)-1-{4-methyl-7-[4-(trifluoromethyl)phenyl]-9-thia-3,4,5,7-tetraazatricyclo[6.3.0.0^2,6]undeca-1(8),2,5,10-tetraene-10-carbonyl}pyrrolidin-3-ol] | 0.1 to 10 µM
9 | Cn1nc2c3cc(C(=O)N[C@@H](CO)c4ccccn4)sc3n(-c3ccc(C(F)(F)F)cc3)c2n1 [Compound 104, N-[(1R)-2-hydroxy-1-(pyridin-2-yl)ethyl]-4-methyl-7-[4-(trifluoromethyl)phenyl]-9-thia-3,4,5,7-tetraazatricyclo[6.3.0.0^2,6]undeca-1(8),2,5,10-tetraene-10-carboxamide] | 0.1 to 10 µM
10 | C[C@H](CO)NC(=O)c1cc2c3nn(C)nc3n(-c3ccc(C(F)(F)F)cc3)c2s1 [Compound 106, N-[(2R)-1-hydroxypropan-2-yl]-4-methyl-7-[4-(trifluoromethyl)phenyl]-9-thia-3,4,5,7-tetraazatricyclo[6.3.0.0^2,6]undeca-1(8),2,5,10-tetraene-10-carboxamide] | 0.1 to 10 µM
11 | C[C@H](CO)NC(=O)c1cc2c3cn(C)nc3n(-c3ccc(C(F)F)cc3)c2s1 [Compound 107, 7-[4-(difluoromethyl)phenyl]-N-[(2R)-1-hydroxypropan-2-yl]-4-methyl-9-thia-4,5,7-triazatricyclo[6.3.0.0^2,6]undeca-1(8),2,5,10-tetraene-10-carboxamide] | 0.1 to 10 µM
12 | Cn1nc2c3cc(C(=O)N4CC[C@@H](O)C4)sc3n(-c3ccc(C(F)(F)F)cc3)c2n1 [Compound 108, (3R)-1-{4-methyl-7-[4-(trifluoromethyl)phenyl]-9-thia-3,4,5,7-tetraazatricyclo[6.3.0.0^2,6]undeca-1(8),2,5,10-tetraene-10-carbonyl}pyrrolidin-3-ol] | > 10 µM
13 | Cn1nc2c3cc(C(=O)N[C@H](CO)c4ccccn4)sc3n(-c3ccc(C(F)(F)F)cc3)c2n1 [Compound 109, N-[(1S)-2-hydroxy-1-(pyridin-2-yl)ethyl]-4-methyl-7-[4-(trifluoromethyl)phenyl]-9-thia-3,4,5,7-tetraazatricyclo[6.3.0.0^2,6]undeca-1(8),2,5,10-tetraene-10-carboxamide] | 0.1 to 10 µM
14 | COCC(CO)NC(=O)c1cc2c3cn(C)nc3n(-c3ccc(C(F)(F)F)cc3)c2s1 (centres unmarked) [Compound 111, N-(1-hydroxy-3-methoxypropan-2-yl)-4-methyl-7-[4-(trifluoromethyl)phenyl]-9-thia-4,5,7-triazatricyclo[6.3.0.0^2,6]undeca-1(8),2,5,10-tetraene-10-carboxamide] | 0.1 to 10 µM

Same assay, conditions: Homo sapiens, SK-HEP1, SK-HEP-1 cells, 24 hour incubation, number, or n.d. (x) = not detectable below threshold x

Row | Compound | IC50
15 | C[C@H](CO)NC(=O)c1cc2c3cn(C)nc3n(-c3ccc(C(F)(F)F)nc3)c2s1 [Compound 86, N-[(2R)-1-hydroxypropan-2-yl]-4-methyl-7-[6-(trifluoromethyl)pyridin-3-yl]-9-thia-4,5,7-triazatricyclo[6.3.0.0^2,6]undeca-1(8),2,5,10-tetraene-10-carboxamide] | > 30 µM
16 | CNC(=O)c1cc2c3cn(C)nc3n(-c3ccc(C(F)(F)F)nc3)c2s1 [Compound 87, N,4-dimethyl-7-[6-(trifluoromethyl)pyridin-3-yl]-9-thia-4,5,7-triazatricyclo[6.3.0.0^2,6]undeca-1(8),2,5,10-tetraene-10-carboxamide] | > 30 µM
17 | Cn1cc2c3cc(C(N)=O)sc3n(-c3ccc(C(F)(F)F)cc3)c2n1 [Compound 89, 4-methyl-7-[4-(trifluoromethyl)phenyl]-9-thia-4,5,7-triazatricyclo[6.3.0.0^2,6]undeca-1(8),2,5,10-tetraene-10-carboxamide] | 0.98 µM
18 | C[C@@H](CO)NC(=O)c1cc2c3nn(C)nc3n(-c3ccc(C(F)(F)F)cc3)c2s1 [Compound 110, N-[(2S)-1-hydroxypropan-2-yl]-4-methyl-7-[4-(trifluoromethyl)phenyl]-9-thia-3,4,5,7-tetraazatricyclo[6.3.0.0^2,6]undeca-1(8),2,5,10-tetraene-10-carboxamide] | > 30 µM
19 | Cn1cc2c3cc(C(=O)NC(CO)CO)sc3n(-c3ccc(C(F)(F)F)cc3)c2n1 [Compound 112, N-(1,3-dihydroxypropan-2-yl)-4-methyl-7-[4-(trifluoromethyl)phenyl]-9-thia-4,5,7-triazatricyclo[6.3.0.0^2,6]undeca-1(8),2,5,10-tetraene-10-carboxamide] | > 9.5 µM
20 | Cn1cc2c3cc(C(=O)N[C@@H](CO)c4ccccn4)sc3n(-c3ccc(C(F)(F)F)cn3)c2n1 [Compound 113, N-[(1R)-2-hydroxy-1-(pyridin-2-yl)ethyl]-4-methyl-7-[5-(trifluoromethyl)pyridin-2-yl]-9-thia-4,5,7-triazatricyclo[6.3.0.0^2,6]undeca-1(8),2,5,10-tetraene-10-carboxamide] | > 9.5 µM
21 | CC[C@H](CO)NC(=O)c1cc2c3cn(C)nc3n(-c3ccc(C(F)(F)F)cn3)c2s1 [Compound 114, N-[(2R)-1-hydroxybutan-2-yl]-4-methyl-7-[5-(trifluoromethyl)pyridin-2-yl]-9-thia-4,5,7-triazatricyclo[6.3.0.0^2,6]undeca-1(8),2,5,10-tetraene-10-carboxamide] | > 3 µM
22 | Cn1cc2c3cc(C(=O)NCC(O)CO)sc3n(-c3ccc(C(F)(F)F)cn3)c2n1 (centres unmarked) [Compound 115, N-(2,3-dihydroxypropyl)-4-methyl-7-[5-(trifluoromethyl)pyridin-2-yl]-9-thia-4,5,7-triazatricyclo[6.3.0.0^2,6]undeca-1(8),2,5,10-tetraene-10-carboxamide] | > 0.3 µM
23 | Cn1ccc(C(CO)NC(=O)c2cc3c4cn(C)nc4n(-c4ccc(C(F)(F)F)cn4)c3s2)n1 (centres unmarked) [Compound 116, N-[2-hydroxy-1-(1-methyl-1H-pyrazol-3-yl)ethyl]-4-methyl-7-[5-(trifluoromethyl)pyridin-2-yl]-9-thia-4,5,7-triazatricyclo[6.3.0.0^2,6]undeca-1(8),2,5,10-tetraene-10-carboxamide] | > 30 µM
